Assay results taken from patent publication US7745390B2, “Antimicrobial peptides” (priority 2005, dated 2010).
pIC50: −log10 of the molar value. Square brackets hold non-standard residues; d marks the D form. Ends that are not written are not given here. Peptide text beside a SMILES is read from it.

Key:
B. cereus = assay type: cell-based; conditions: pH 7.2
Experimental: (§1) The experiments described above characterizing the activity of granulysin peptides G1-G18 relied on counting bacterial colonies on plates. This assay is quite labor intensive and would not allow evaluation of many different compounds on a number of different microbes. Therefore, we optimized an assay in which the entire procedure could be completed in a single microtiter well. Briefly, peptides are diluted in 10 mM phosphate buffer, pH 7.2 supplemented with 0.03% LB (J. Sambrook, D. W. Russell, Molecular Cloning: A Laboratory Manual (Cold Spring Harbor Laboratory Press, New York, ed. 3, 2001) pg. A2.2, Retrieved from http://openwetware.org/wiki/LB) and 25 μl is added to microtiter wells. Bacteria (25 μl) are added (˜5×10^6 colony forming units/ml) in the same buffer. After a 3-hour incubation at 37° C., 150 μl of LB is added and the plates are incubated overnight. The OD at 600 nm is read on an ELISA plate reader. The minimum inhibitory concentration (MIC) is the lowest concentration allowing no bacterial growth. The IC50 is the concentration of peptide that results in 50% growth compared to the medium.
(§2) We now describe additional peptides and their activity. The peptides have been designed, synthesized, and have been tested for lysis of E. coli and S. typhimurium (gram negative bacteria), B. cereus (gram positive bacterium). Results are shown in Table 2 along with the amino acid sequence of the peptide. Changes from the naturally occurring sequence are underlined. In general, the desired result is lysis of bacteria at low concentration (<1 μM).
(§3) In Table 2, Columns 2-7 are the MIC and IC50 (concentration required for 50% inhibition of growth) for each organism (E. coli, Salmonella, and B. cereus). The MIC (minimum inhibitory concentration) was determined as described above, in a multiwell plate assay. […] L-isomer amino acids are designated by capital letters while D-isomer amino acids are designated by lower case letters.

E. coli DH5a = assay type: cell-based; conditions: DH5a, pH 7.2
Experimental: as §1, §2, §3

Salmonella = assay type: cell-based, S. typhimurium; conditions: pH 7.2
Experimental: as §1, §2, §3

Compound | B. cereus MIC (B. cereus) [µM] | pIC50 (B. cereus) | E. coli DH5a MIC (E. coli DH5a) [µM] | pIC50 (E. coli DH5a) | pIC50 (Salmonella) | Salmonella MIC (Salmonella) [µM]
CSCC[C@H](NC(=O)[C@H](Cc1ccccc1)NC(=O)[C@@H](CCCNC(=N)N)NC(=O)[C@@H](CCCNC(=N)N)NC(=O)[C@H](CO)NC(=O)[C@@H](NC(=O)[C@@H](CCCNC(=N)N)NC(=O)[C@@H](CCCNC(=N)N)NC(=O)[C@@H](CCCNC(=N)N)NC(=O)[C@@H](CCCNC(=N)N)NC(=O)[C@@H](CCCNC(=N)N)NC(=O)[C@@H](CCCNC(=N)N)NC(=O)[C@@H](CCCNC(=N)N)NC(=O)[C@H](CCC(N)=O)NC(=O)[C@H](CC(C)C)NC(=O)[C@H](CCCCN)NC(=O)[C@H](CO)NC(=O)[C@H](CO)NC(=O)[C@H](Cc1c[nH]cn1)NC(=O)[C@H](CC(=O)O)NC(=O)CNC(=O)CNC(=O)[C@H](CC(=O)O)NC(=O)CNC(=O)CNC(=O)[C@@H](N)CC(=O)O)C(C)C)C(=O)N[C@H](CCCNC(=N)N)C(=O)N[C@H](CCCNC(=N)N)C(=O)O [Peptide G11.47, DGGDGGDHSSKLQrrrrrrrVSrrFMrr] (H-DGGDGGDHSSKLQ[dR][dR][dR][dR][dR][dR][dR]VS[dR][dR]FM[dR][dR]-OH; N-terminus and C-terminus assumed) | 0.32 | 7.00 | 0.18 | 7.00 | 6.82 | 0.45
QRSVSRAPTRVSRTGRSRW [Peptide G13.8, QRSVSRAPTRVSRTGRSRW] | >10 | 5.11 | 5.7 | 5.48 | < 5.00 | >10
QRAVARAATRVARTGRARWRRVARRFMRR [Peptide G8.10] | 0.75 | 6.35 | 0.63 | 6.35 | 6.68 | 0.35
CSCC[C@@H](NC(=O)[C@H]1CCCN1C(=O)[C@@H](CCCCN)NC(=O)[C@@H](CCCCN)NC(=O)[C@@H](CO)NC(=O)[C@H](NC(=O)[C@@H](CCCCN)NC(=O)[C@@H](CCCCN)NC(=O)[C@@H](CCCCN)NC(=O)[C@@H](CCCCN)NC(=O)[C@@H](CCCCN)NC(=O)[C@@H](CCCCN)NC(=O)[C@H](N)CCCCN)C(C)C)C(=O)N[C@H](CCCCN)C(=O)N[C@H](CCCCN)C(=O)N[C@H](Cc1ccc(O)cc1)C(=O)N[C@H](CCCCN)C(=O)N[C@H](CO)C(=O)N[C@H](CCCCN)C(=O)N[C@H](CCCCN)C(=O)N1CCC[C@@H]1C(=O)N[C@H](CCCCN)C(=O)N[C@H](CCCCN)C(=O)N[C@H](CC(C)C)C(=O)N[C@@H](C(=O)O)C(C)C [Peptide G12.29, kkkkkkkvskkpmkkykskkpkklv] (H-[dK][dK][dK][dK][dK][dK][dK][dV][dS][dK][dK][dP][dM][dK][dK][dY][dK][dS][dK][dK][dP][dK][dK][dL][dV]-OH; N-terminus and C-terminus assumed) | 0.35 | 6.68 | 0.15 | 7.00 | 6.55 | 1.15
GSRRWRDVSRRFMRR [Peptide G14.14, GSRRWRDVSRRFMRR] | 0.35 | 6.68 | 0.17 | 6.96 | 6.68 | 0.7
CC[C@H](C)[C@H](NC(=O)[C@@H](NC(=O)[C@@H](CCCNC(=N)N)NC(=O)[C@H](CO)NC(=O)[C@H](CCC(N)=O)NC(=O)[C@@H](CCCNC(=N)N)NC(=O)[C@@H](CCCNC(=N)N)NC(=O)[C@H](CCSC)NC(=O)[C@H](Cc1ccccc1)NC(=O)[C@@H](CCCNC(=N)N)NC(=O)[C@H](CCCNC(=N)N)NC(=O)[C@H](C)NC(=O)[C@H](NC(=O)[C@H](CC(=O)O)NC(=O)[C@@H](N)CCCNC(=N)N)C(C)C)C(C)C)C(=O)N[C@@H](CO)C(=O)N[C@H](CCCNC(=N)N)C(=O)N[C@@H](CC(C)C)C(=O)N[C@H](C(=O)O)C(C)C [Peptide G12.16, RDvARrFMrrQSrVISrLV] (H-RD[dV]AR[dR]FM[dR][dR]QS[dR]VIS[dR]LV-OH; N-terminus and C-terminus assumed) | 5.6 | 5.45 | 1.39 | 6.14 | 6.00 | 2.8
QRSVSNPPTRVSRPPRSRWRDVSRPPMRR [Peptide G8.16] | >10 | 5.14 | 0.7 | 6.40 | < 5.00 | >10
RRVSRRFMRR [Peptide G11.3, RRVSRRFMRR] | >10 | 5.11 | 2.85 | 5.75 | < 5.00 | >10
QRSVSRAATRVCRTGRSNW [Peptide G13.10, QRSVSRAATRVCRTGRSNW] | 5.6 | 5.46 | 0.71 | 6.60 | < 5.00 | >10
KKVSKKFMKK [Peptide G11.8, KKVSKKFMKK] | >10 | < 5.00 | >10 | < 5.00 | < 5.00 | >10
QKSVSKAATKVSKTGKSKW [Peptide G13.9, QKSVSKAATKVSKTGKSKW] | >10 | 5.11 | 1.45 | 6.05 | < 5.00 | >10
SDVARRFMRRQSRVIRRLV [Peptide G12.22, SDVARRFMRRQSRVIRRLV] | 5.7 | 5.46 | 1.38 | 6.06 | 6.05 | 1.39
QRSVSRAATRVSRTGRSRW [Peptide G13.2, QRSVSRAATRVSRTGRSRW] | 5.6 | 5.47 | 1.37 | 6.07 | 5.14 | >10
WRDVSRNFMRRGRSRGWRDVSRNFMRR [Peptide G11.36] | 0.7 | 6.39 | 0.7 | 6.35 | 6.05 | 1.38
RRVSRRFMRRYRSRVIRGLV [Peptide G12.7] | 0.35 | 6.68 | 0.71 | 6.60 | 6.66 | 0.35
CSCC[C@H](NC(=O)[C@H](Cc1ccccc1)NC(=O)[C@H](CCCNC(=N)N)NC(=O)[C@H](CCCNC(=N)N)NC(=O)[C@H](CO)NC(=O)[C@@H](NC(=O)[C@H](CCCNC(=N)N)NC(=O)[C@H](CCCNC(=N)N)NC(=O)[C@H](CS)NC(=O)[C@H](CS)NC(=O)[C@H](CCCNC(=N)N)NC(=O)[C@H](CCCNC(=N)N)NC(=O)[C@@H](NC(=O)[C@H](CO)NC(=O)[C@H](CCCNC(=N)N)NC(=O)[C@H](CCCNC(=N)N)NC(=O)[C@H](Cc1ccccc1)NC(=O)[C@H](CCSC)NC(=O)[C@H](CCCNC(=N)N)NC(=O)[C@@H](N)CCCNC(=N)N)C(C)C)C(C)C)C(=O)N[C@@H](CCCNC(=N)N)C(=O)N[C@@H](CCCNC(=N)N)C(=O)O [Peptide G11.48] (H-RRMFRRSVRRCCRRVSRRFMRR-OH; N-terminus and C-terminus assumed) | 5.7 | 5.45 | >10 | 5.68 | < 5.00 | >10
QRAVARAATRVARTGRARWRDVARRFMRR [Peptide G8.7] | 0.7 | 6.35 | 1.4 | 6.07 | 6.38 | 0.7
RDVSRRFMRRQSRVIQGLV [Peptide G12.3, RDVSRRFMRRQSRVIQGLV] | >10 | 5.11 | 5.7 | 5.45 | 5.46 | 5.5
